In ChEMBL document CHEMBL1201862, “PubChem BioAssay data set” (2004):
The source made the active and inactive calls.

What was measured:
Genome polyprotein = Genome polyprotein (dengue virus type 2, UniProt P29990); experiment: flavivirus cap methylation enzyme inhibition – biochemical, confirmation dose response, primary screen (AID 588689); assay type: functional
Protein skinhead-1 = biological target: T1, Protein skinhead-1 (Caenorhabditis elegans, UniProt P34707); assay type: functional
T1 sequence (P34707 whole entry): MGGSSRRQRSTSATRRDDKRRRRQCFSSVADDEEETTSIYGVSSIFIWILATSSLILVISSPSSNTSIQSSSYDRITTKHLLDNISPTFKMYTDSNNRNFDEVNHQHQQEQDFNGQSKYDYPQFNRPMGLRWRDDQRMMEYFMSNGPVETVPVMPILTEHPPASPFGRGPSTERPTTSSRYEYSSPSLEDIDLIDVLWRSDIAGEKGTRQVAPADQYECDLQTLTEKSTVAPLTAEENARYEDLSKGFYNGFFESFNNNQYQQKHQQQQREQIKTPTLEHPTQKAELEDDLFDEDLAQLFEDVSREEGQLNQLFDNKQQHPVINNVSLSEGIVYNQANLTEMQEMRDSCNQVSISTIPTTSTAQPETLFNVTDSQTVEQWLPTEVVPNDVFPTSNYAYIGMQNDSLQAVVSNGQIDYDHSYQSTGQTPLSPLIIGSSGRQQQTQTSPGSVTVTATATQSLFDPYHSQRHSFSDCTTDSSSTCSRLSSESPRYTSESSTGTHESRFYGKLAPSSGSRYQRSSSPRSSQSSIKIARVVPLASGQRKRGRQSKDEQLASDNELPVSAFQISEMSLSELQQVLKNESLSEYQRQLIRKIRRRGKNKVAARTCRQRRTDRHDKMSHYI

[1] = biological target: DNA dC->dU-editing enzyme APOBEC-3A (Homo sapiens, UniProt P31941); experiment: Dose Response confirmation of small molecule APOBEC3A DNA Deaminase Inhibitors via a fluorescence-based single-stranded DNA deaminase assay. [Related pubchem assays (depositor defined):AID493011, AID493024]; assay type: functional
DNA dC->dU-editing enzyme APOBEC-3A, sequence (P31941 whole entry): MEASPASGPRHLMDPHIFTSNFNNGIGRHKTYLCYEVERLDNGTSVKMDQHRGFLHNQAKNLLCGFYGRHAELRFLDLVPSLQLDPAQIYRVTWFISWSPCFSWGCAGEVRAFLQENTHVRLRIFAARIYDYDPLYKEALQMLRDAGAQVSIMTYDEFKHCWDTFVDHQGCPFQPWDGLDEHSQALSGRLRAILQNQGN

[2] = biological target: DNA dC->dU-editing enzyme APOBEC-3G (Homo sapiens, UniProt Q9HC16); assay type: functional;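 note: Dose-response counterscreen measuring inhibition of APOBEC3G DNA deaminase activity, run while confirming APOBEC3A inhibitors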
DNA dC->dU-editing enzyme APOBEC-3G, sequence (Q9HC16 whole entry): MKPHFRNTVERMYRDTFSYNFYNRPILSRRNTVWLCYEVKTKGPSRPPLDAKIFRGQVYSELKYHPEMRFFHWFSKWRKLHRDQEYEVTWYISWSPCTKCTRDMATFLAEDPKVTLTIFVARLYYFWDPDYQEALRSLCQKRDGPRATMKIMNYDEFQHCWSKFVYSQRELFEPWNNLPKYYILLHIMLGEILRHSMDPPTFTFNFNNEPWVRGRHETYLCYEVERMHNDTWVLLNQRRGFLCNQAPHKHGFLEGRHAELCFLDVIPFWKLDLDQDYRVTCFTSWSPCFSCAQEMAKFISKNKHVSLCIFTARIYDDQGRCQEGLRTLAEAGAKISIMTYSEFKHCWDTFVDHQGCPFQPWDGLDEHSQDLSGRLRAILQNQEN

HeLa = experiment: ATP-based viability loss in HeLa cells – cell-based, CellTiter-Glo luminescence, cherry-pick samples, cytotoxicity control for MITF activator project, dose response (AID 540259); assay type: functional; conditions: Homo sapiens
Fatty acid synthase [3] = biological target: T2, Fatty acid synthase (Homo sapiens, UniProt P49327); experiment: inhibition of human FAS-TE enzyme activity – biochemical, endpoint fluorescence intensity, uHTS hits, dose response (AID 624327); assay type: functional;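 note: fluorescence from hydrolysis of an O-methyl fluorescein acyl ester substrate by the enzyme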
T2 sequence (P49327 whole entry): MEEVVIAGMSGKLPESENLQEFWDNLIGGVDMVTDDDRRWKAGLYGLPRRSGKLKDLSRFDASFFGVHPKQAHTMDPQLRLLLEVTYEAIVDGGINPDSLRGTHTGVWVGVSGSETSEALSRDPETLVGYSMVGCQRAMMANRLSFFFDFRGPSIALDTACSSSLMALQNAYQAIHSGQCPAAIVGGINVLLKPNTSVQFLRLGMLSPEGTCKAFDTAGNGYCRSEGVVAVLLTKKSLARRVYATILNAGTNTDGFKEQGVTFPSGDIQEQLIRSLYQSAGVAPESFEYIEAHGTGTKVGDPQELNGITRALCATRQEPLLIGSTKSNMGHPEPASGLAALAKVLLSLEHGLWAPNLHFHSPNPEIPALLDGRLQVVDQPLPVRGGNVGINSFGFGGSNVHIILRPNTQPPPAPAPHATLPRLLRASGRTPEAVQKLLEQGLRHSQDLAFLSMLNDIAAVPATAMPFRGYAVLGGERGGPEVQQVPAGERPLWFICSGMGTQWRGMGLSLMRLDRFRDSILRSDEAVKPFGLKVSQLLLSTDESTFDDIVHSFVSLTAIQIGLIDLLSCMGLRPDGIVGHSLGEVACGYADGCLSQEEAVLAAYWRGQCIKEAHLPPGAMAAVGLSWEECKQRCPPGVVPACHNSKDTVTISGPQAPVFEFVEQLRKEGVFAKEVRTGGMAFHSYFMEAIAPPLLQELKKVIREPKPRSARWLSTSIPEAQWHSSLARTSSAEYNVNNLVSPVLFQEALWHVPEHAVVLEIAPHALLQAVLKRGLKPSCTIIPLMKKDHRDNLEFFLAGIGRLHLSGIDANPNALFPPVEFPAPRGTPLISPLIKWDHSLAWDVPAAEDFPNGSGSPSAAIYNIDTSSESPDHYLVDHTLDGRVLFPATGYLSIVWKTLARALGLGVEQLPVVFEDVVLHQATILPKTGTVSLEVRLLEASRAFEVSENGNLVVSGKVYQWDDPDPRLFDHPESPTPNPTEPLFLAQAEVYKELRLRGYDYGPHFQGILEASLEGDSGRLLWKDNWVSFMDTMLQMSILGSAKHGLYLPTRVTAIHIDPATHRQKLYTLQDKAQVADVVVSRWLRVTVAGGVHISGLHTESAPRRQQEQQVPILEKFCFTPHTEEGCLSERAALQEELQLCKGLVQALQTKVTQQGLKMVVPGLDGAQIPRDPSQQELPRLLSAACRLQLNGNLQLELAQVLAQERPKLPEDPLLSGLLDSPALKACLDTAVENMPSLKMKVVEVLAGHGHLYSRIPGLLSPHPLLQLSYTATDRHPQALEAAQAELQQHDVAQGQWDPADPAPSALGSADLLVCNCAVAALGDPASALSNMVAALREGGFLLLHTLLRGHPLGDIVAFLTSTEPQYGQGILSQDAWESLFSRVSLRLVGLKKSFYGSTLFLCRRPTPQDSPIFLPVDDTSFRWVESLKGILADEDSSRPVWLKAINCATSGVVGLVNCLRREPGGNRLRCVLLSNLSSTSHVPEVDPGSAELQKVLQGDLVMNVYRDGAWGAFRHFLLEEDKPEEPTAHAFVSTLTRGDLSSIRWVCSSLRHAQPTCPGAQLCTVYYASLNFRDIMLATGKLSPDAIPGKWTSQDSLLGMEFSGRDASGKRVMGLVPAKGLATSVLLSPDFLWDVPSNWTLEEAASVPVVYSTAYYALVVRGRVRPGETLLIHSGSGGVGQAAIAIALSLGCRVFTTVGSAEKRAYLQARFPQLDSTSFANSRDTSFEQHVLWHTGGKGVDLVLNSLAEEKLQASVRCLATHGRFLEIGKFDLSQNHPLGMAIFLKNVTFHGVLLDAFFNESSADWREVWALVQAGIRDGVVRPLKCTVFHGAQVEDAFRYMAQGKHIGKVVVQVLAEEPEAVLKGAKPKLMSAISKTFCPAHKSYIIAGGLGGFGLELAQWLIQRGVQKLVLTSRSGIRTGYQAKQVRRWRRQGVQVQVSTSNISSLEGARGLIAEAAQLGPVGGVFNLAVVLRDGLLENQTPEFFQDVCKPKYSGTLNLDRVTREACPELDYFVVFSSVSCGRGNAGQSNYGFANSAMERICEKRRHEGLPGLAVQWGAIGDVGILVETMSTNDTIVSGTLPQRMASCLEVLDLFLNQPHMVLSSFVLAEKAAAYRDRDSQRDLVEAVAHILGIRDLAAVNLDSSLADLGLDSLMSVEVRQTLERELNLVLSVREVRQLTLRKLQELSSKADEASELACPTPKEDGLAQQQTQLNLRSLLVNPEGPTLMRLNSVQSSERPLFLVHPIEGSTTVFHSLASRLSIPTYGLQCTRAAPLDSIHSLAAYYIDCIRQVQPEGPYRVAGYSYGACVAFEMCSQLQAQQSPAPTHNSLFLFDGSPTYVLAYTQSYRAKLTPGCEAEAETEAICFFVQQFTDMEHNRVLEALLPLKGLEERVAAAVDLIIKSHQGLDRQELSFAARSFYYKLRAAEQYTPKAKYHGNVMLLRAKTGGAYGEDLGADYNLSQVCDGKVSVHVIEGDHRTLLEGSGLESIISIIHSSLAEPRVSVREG

Fatty acid synthase [4] = biological target: T2, Fatty acid synthase; experiment: inhibition of human FAS-TE enzyme activity – biochemical, kinetic fluorescence intensity, dose response (AID 624326); assay type: functional;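 note: rate of fluorescence rise from hydrolysis of a fluorogenic O-methyl fluorescein ester substrate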
[5] = A cytotoxicity screen of small molecule inhibitors of the PhoP region in Salmonella typhi identified in the primary screen. [Related pubchem assays: 1850, 1864, 1985 ]; assay type: functional
[6] = biological target: Induced myeloid leukemia cell differentiation protein Mcl-1 (Homo sapiens, UniProt Q07820); assay type: functional
Induced myeloid leukemia cell differentiation protein Mcl-1, sequence (Q07820 whole entry, the tested form may be a part): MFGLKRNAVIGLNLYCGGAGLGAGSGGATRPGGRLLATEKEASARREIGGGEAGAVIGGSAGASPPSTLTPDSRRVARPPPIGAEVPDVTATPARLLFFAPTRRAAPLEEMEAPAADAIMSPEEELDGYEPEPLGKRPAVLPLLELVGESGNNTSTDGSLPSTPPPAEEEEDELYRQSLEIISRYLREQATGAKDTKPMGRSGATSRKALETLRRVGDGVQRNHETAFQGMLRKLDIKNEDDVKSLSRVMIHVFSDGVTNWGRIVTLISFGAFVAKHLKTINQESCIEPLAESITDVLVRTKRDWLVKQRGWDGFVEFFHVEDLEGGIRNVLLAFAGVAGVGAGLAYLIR

[7] = biological target: T3, RNA-binding protein pos-1 (Caenorhabditis elegans, UniProt G5EF15); experiment: disruptors of C. elegans POS-1 RNA interaction – biochemical, fluorescence polarization, dose response (AID 1964);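 note: purified POS-1 fused to maltose binding protein made in E. coli; potency of compounds blocking POS-1 binding to fluorescent RNA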
T3 sequence (G5EF15 whole entry): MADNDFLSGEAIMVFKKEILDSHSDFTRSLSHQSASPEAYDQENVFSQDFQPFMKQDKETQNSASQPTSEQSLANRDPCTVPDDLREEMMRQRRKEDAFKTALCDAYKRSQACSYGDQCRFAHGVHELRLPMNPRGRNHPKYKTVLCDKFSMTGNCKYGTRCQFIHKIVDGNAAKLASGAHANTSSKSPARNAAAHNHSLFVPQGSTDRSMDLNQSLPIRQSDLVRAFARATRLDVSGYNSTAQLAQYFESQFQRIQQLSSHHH

[8] = biological target: T4, Zinc finger protein mex-5 (Caenorhabditis elegans, UniProt Q9XUB2); experiment: potency of MEX-5 RNA-binding blockers – biochemical, C. elegans, fluorescence polarization, dose response (AID 1960)
T4 sequence (Q9XUB2 whole entry): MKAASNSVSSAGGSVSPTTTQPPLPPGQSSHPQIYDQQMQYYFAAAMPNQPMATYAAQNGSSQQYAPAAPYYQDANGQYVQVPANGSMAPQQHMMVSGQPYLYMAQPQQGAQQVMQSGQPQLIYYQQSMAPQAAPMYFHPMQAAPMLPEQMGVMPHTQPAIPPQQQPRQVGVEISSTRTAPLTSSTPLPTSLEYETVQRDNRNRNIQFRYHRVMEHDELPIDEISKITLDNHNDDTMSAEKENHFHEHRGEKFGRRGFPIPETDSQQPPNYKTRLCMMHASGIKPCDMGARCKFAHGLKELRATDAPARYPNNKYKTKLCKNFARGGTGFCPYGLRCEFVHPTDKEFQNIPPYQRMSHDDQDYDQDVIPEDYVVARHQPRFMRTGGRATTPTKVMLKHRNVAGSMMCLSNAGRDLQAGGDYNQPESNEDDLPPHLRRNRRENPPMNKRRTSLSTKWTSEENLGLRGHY

[9] = biological target: Heat shock protein HSP 90-alpha (Homo sapiens, UniProt P07900); assay type: functional, organism-based
Large T antigen = Large T antigen (Simian virus 40, UniProt P03070); assay type: functional, Betapolyomavirus macacae;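 note: Confirmatory-stage PubChem screen for compounds that inhibit SV40 T antigen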
[10] = Luminescence Cell-Based Dose Confirmation HTS to Identify Activators of 5'UTR Stem-Loop Driven Alpha-Synuclein mRNA Translation in H4 Neuroglioblastoma Cells. [Related pubchem assays: 1829 (Project Summary), 1814 (Primary HTS)]; assay type: functional
[11] = Luminescence Cell-Based Dose Response HTS to Identify Activators of Luciferase Translation or Activity in H4 […] Cells. [Related pubchem assays: 1829 (Project Summary), 1814 (Primary HTS)]; assay type: functional
H4 = experiment: Luminescence Cell-Based Dose Response HTS to Identify Activators of 5'UTR Stem-Loop Driven Prion Protein mRNA Translation in H4 Neuroglioblastoma Cells. [Related pubchem assays: 1829 (Project Summary), 1814 (Primary HTS)]; assay type: functional; conditions: Homo sapiens
[12] = Counterscreen for inhibitors of Trypanosoma brucei methionyl tRNA synthetase (MetRS): Luminescence-based cell-based high throughput dose response assay to identify compounds that are cytotoxic to Jurkat human T lymphocyte cells.; assay type: functional
[13] = viability of uninfected HEp-2 cells – cell-based, HTS, cytotoxicity control for RSV inhibitor project, dose response (AID 2410); assay type: functional; conditions: human respiratory syncytial virus
Nonstructural protein 1 = Nonstructural protein 1 (Influenza A virus, UniProt Q194T2); assay type: functional, Influenza A virus (A/California/07/2009(H1N1))
Nonstructural protein 1, sequence (Q194T2 whole entry, the tested form may be a part): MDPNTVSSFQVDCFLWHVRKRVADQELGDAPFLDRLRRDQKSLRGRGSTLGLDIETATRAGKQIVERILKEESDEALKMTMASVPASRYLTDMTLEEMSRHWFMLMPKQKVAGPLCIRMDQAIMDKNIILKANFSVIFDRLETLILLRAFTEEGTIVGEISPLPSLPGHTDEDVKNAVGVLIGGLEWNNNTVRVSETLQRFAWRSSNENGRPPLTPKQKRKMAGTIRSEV

[14] = blockers of HIV-1 envelope-mediated cell-cell fusion – cherry-pick, dose response (AID 652057); assay type: functional, cell-based
Paired box protein Pax-8 = Paired box protein Pax-8 (Homo sapiens, UniProt Q06710); experiment: PAX8 transcriptional activity inhibition in RMG-I – RMG-I cells, luciferase, cherry-pick, dose response (AID 687027); assay type: functional, cell-based;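 note: luciferase reporter driven by Pax8 target thyroperoxidase promoter measured by SteadyGlo luminescence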
Paired box protein Pax-8, sequence (Q06710 whole entry, the tested form may be a part): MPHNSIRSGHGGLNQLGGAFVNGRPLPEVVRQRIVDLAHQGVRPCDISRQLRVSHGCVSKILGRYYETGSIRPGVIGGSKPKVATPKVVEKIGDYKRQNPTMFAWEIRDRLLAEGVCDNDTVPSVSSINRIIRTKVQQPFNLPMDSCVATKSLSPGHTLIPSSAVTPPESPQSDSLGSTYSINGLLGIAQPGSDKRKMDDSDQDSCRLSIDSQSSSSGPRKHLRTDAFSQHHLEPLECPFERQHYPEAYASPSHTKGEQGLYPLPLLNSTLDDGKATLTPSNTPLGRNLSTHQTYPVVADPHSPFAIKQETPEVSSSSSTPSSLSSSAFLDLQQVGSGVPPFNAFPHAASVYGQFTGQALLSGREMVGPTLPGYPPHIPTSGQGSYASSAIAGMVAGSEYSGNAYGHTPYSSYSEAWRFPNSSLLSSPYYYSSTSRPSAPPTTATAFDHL

[15] = HIV-1 AD8 envelope cell-cell fusion blockers – cherry-pick, dose response (AID 652062); assay type: functional, cell-based;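 note: luciferase signal from cell-cell fusion driven by HIV-1 clade B AD8 Env; potency is for inhibitors of fusion seen as a drop in luminescence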
[16] = OVCAR-3 cell viability loss – plate reader, dry powder samples, PAX8 inhibitor project, dose response (AID 743044); assay type: functional, cell-based
[17] = OVCAR8 cell viability loss – plate reader, dry powder samples, PAX8 project, dose response (AID 743197); assay type: functional, cell-based; conditions: OVCAR-8

Genome polyprotein, sequence (P29990 2492-3391 limits assumed): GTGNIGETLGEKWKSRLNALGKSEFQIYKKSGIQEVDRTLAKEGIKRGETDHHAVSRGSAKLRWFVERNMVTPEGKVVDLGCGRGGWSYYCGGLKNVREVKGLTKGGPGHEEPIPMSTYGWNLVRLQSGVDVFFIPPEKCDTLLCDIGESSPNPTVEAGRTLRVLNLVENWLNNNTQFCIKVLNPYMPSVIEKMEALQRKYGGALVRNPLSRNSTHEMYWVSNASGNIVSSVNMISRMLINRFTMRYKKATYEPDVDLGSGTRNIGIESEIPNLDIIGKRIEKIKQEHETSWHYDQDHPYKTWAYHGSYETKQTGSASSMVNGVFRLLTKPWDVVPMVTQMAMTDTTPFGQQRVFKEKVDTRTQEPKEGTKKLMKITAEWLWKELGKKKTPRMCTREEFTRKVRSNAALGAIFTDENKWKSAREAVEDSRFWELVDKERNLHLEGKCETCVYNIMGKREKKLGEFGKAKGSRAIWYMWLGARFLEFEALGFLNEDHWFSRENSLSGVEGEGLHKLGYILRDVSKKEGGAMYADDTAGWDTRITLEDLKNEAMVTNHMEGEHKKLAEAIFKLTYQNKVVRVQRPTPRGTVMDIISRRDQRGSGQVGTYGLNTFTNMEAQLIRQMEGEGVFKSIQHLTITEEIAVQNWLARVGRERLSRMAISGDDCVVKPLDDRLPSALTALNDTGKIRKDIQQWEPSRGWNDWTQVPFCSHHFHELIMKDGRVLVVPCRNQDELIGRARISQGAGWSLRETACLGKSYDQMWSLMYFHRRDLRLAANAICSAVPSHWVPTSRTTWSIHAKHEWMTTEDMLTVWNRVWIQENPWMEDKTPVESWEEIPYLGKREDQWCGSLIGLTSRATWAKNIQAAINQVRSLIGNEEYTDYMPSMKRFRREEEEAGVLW

O=C(O)c1ccccc1-c1ccccc1C(=O)Nc1ccc2c(c1)oc(=O)c1ccccc12
IC50 (Genome polyprotein): 56.3 µM (active)
IC50 (Protein skinhead-1): > 100 µM (inactive)

CSC1=NCCN1CCOc1ccccc1
IC50 [1]: 6.77 µM (active)
IC50 [2]: 8.19 µM (active)

CCCc1cc(C(=O)Nc2cc(Cl)ccc2O)no1
AC50 (HeLa): > 350 µM (inactive)

CC(C)CSc1ncc(-c2cccc(C(F)(F)F)c2)cn1
IC50 (Fatty acid synthase [3]): 15.5 µM (active)
IC50 (Fatty acid synthase [4]): 14.2 µM (active)

CCCCCCCCCCOC(=O)C[N+](C)(C)CC1CCCCC1O (configuration not stated)
EC50 [5]: > 50 µM (active)

O=C1CCCC2=C1C(c1ccc(O)c(O)c1)Nc1ccc3ncccc3c12 (configuration not stated)
IC50 [6]: 2.67 µM (active)

CCc1ccc(N2Cc3ccccc3C2)cc1
AC50 (HeLa): 43.5 µM (active)

Nc1cc(N2CCOCC2)c(Cl)cc1[N+](=O)[O-]
EC50 [5]: > 50 µM (active)

O=C(Nc1ccc(OC(F)F)c(Cl)c1)c1ccccn1
AC50 (HeLa): 99.7 µM (active)
IC50 (Protein skinhead-1): 51.6 µM (inactive)

O=C1Oc2ccccc2C(=O)/C1=C/c1ccccc1O
IC50 [6]: 4.18 µM (active)
IC50 (Genome polyprotein): 25.2 µM (active)

CCC(=O)OC1(C)C(=O)C2=COC(c3ccc(OC)cc3)=CC2=C(Br)C1=O (configuration not stated)
EC50 [7]: 31.5 µM (active)
EC50 [8]: 32.9 µM (active)
AC50 [9]: 1.51 µM (active)
IC50 (Genome polyprotein): > 100 µM (active)

Cc1nn(CC(=O)Nc2ccc(N(C)C)cc2)c(C)c1[N+](=O)[O-]
IC50 (Large T antigen): 12.3 µM (active)
IC50 [6]: 7.62 µM (not active)

Clc1ccc(OCCCN2CCCC2)cc1Cl
EC50 [5]: > 50 µM (active)

Cc1ccc(N(Cc2cc3cccc(C)c3nc2O)S(=O)(=O)c2ccccc2)c(C)c1
IC50 [1]: 4.45 µM (active)
IC50 [2]: 5.56 µM (active)

Fc1ccccc1CSc1nc2cc(Br)c[nH]c-2n1
EC50 [10]: 0.116 µM (active)
EC50 [11]: 89.7 µM (active)
EC50 (H4): 20.3 µM (active)
IC50 [12]: 83.3 µM (inactive)

Fc1ccc(COc2ccc(-c3nnco3)cc2)cc1
IC50 (Protein skinhead-1): 5.67 µM (active)

O=C1CCCCC1C(=O)c1ccccc1 (configuration not stated)
IC50 [6]: 0.719 µM (not active)

CCC(=O)Nc1ccc(-c2ccc(N3CCC(C)CC3)nn2)cc1
AC50 (HeLa): 146 µM (active)

COc1ccc2c(c1OC)C(=O)OC2Nc1nc(-c2cc3cc(Br)ccc3oc2=O)cs1 (configuration not stated)
CC50 [13]: 30.7 µM (active)
AC50 (HeLa): 290 µM (active)

COc1ccccc1CNC(=O)COC(=O)c1cc([N+](=O)[O-])ccc1N1CCOCC1
IC50 (Fatty acid synthase [3]): 1.31 µM (active)
IC50 (Fatty acid synthase [4]): 1.64 µM (active)

CCn1c(CNc2ccc(Cl)cc2)nnc1SCc1ccc(Cl)cc1
AC50 [9]: 5.01 µM (active)

COc1ccc(-n2c(C)cc(C(=O)C[N+]34CCN(CC3)CC4)c2C)cc1
IC50 [1]: 2.64 µM (active)
IC50 [2]: 2.73 µM (active)

O=C(Nc1ccc(F)cc1)c1ccc2snnc2c1
EC50 [5]: > 50 µM (active)

Cn1c(Cc2ccccc2)nnc1SCC(=O)Nc1ccc2c(c1)OCO2
IC50 (Protein skinhead-1): > 100 µM (inactive)

COc1ccccc1NC(=O)CN1CCC(c2nc3cc(C)ccc3[nH]2)CC1
EC50 [5]: > 50 µM (active)

COc1ccc2c(c1)[C@H]1[C@H](CO2)[C@H](c2ccccc2)[C@]2(C)C(=O)Nc3ccc(Br)cc3C(=O)N12
AC50 [9]: 1.59 µM (active)

CCC(=O)c1ccc(OCC(=O)Nc2cc(S(=O)(=O)N3CCCCC3)ccc2N2CCN(CC)CC2)cc1
IC50 [1]: 3.32 µM (active)
IC50 [2]: 5.31 µM (active)

Cc1cccc(N=C2c3cc([N+](=O)[O-])ccc3-c3c2cc([N+](=O)[O-])cc3[N+](=O)[O-])c1
IC50 (Nonstructural protein 1): 11.7 µM (active)
AC50 [9]: 16.6 µM (active)

O=C1C=CC(=Nc2ccc(F)cc2)O1
AC50 [9]: 2.25 µM (active)

Brc1ccc2nc(-c3ccccc3)c(Cc3ccsc3)n2c1
IC50 (Protein skinhead-1): > 100 µM (inactive)

Cn1c2ccccc2c2cc(/C=N/NC(=O)c3cc(O)cc(O)c3)ccc21
CC50 [13]: 12.8 µM (active)
IC50 [1]: 16.2 µM (active)
IC50 [2]: 41.6 µM (active)

C[C@H](NC(=O)C[C@@H]1C[C@@H]2c3cc(NC(=O)Nc4ccc(C(F)(F)F)cc4)ccc3O[C@@H]2[C@@H](CO)O1)c1ccccc1
AC50 [14]: 20.6 µM (active)
AC50 (Paired box protein Pax-8): 13.2 µM (active)
AC50 [15]: 27.7 µM (active)
AC50 [16]: 37.9 µM (active)
AC50 [17]: 36.8 µM (active)

C[C@@H]1CN([C@H](C)CO)C(=O)c2cc(NC(=O)Nc3ccc(C(F)(F)F)cc3)ccc2O[C@@H](C)CCCCO[C@H]1CN(C)S(=O)(=O)c1ccc(Cl)cc1
AC50 (Paired box protein Pax-8): 2.41 µM (active)
AC50 [16]: 26.3 µM (active)
AC50 [17]: > 70 µM (inactive)

COc1ccccc1-c1ccc2c(c1)[C@@H]1[C@@H](CCN1S(=O)(=O)c1ccccc1F)[C@H](CO)N2
AC50 (Paired box protein Pax-8): 6.87 µM (active)
AC50 [16]: 20.7 µM (active)

COc1ccc(C)c2s/c(=N\C(=O)c3ccc(C(C)=O)cc3)n(C)c12
AC50 (HeLa): 40.9 µM (active)
